{"source": "paper PMC2174406", "about": "(Environmental Health Perspectives, 2007)", "key": {"thyroid peroxidase (TPO)": {"target": "T1, thyroid peroxidase (TPO) (Homo sapiens, UniProt P07202)", "T1 sequence (P07202 19-933)": "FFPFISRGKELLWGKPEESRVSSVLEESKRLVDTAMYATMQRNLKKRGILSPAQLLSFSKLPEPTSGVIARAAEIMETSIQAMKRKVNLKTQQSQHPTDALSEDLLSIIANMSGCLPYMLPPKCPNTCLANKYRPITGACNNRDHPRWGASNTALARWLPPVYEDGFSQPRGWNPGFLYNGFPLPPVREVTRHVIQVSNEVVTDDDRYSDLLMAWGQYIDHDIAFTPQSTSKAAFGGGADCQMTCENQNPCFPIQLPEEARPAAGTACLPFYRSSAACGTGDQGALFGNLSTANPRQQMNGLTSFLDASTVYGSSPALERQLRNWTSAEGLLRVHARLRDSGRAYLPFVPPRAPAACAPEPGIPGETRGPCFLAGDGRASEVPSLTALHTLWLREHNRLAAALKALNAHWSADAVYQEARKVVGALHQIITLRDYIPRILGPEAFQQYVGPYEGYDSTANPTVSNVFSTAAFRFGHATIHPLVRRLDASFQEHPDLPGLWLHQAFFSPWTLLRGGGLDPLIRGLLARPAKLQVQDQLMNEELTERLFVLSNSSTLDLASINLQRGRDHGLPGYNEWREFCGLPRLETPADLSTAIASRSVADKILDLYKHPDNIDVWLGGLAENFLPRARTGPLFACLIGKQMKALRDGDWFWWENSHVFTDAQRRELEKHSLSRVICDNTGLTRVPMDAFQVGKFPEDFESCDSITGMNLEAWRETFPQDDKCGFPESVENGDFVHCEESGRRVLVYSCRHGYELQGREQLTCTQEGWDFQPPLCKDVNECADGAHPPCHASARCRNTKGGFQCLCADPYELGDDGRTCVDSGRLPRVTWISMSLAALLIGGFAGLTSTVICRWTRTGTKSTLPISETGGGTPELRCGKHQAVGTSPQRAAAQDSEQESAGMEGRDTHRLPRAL", "experiment": "guaiacol oxidation assay with digitonin-extracted recombinant TPO", "format": "cell-based"}, "transthyretin (TTR)": {"target": "transthyretin (TTR) (Homo sapiens, UniProt P02766)", "experiment": "[…]T4 displacement", "format": "binding", "conditions": "cited from earlier work"}}, "data": [{"smiles": "CC(C)(c1ccc(O)cc1)c1ccc(O)cc1", "note": "[bisphenol A]", "values": [{"measurement": "IC50", "setting": "thyroid peroxidase (TPO)", "result": "the industrial chemicals 4-NP and BPA also inhibited TPO"}]}, {"smiles": "O=c1c(-c2ccc(O)cc2)coc2cc(O)ccc12", "note": "[daidzein]", "values": [{"measurement": "IC50", "setting": "transthyretin (TTR)", "result": 1800, "unit": "nM"}]}, {"smiles": "O=c1c(-c2ccc(O)cc2)coc2cc(O)cc(O)c12", "note": "[genistein]", "values": [{"measurement": "IC50", "setting": "transthyretin (TTR)", "result": 70, "unit": "nM"}]}, {"smiles": "COc1cc2c(=O)c(-c3ccc(O)cc3)coc2cc1O", "note": "[glycitein]", "values": [{"measurement": "IC50", "setting": "transthyretin (TTR)", "result": 200, "unit": "nM"}]}]}
